Measurements published in the NIST ThermoML archive (doi:10.1016/j.jct.2005.04.015).

Assay: excess molar enthalpy (molar enthalpy of mixing); xn = mol fraction of the nth substance listed
Settings: Liquid, Flow calorimetry

CCOC=O [ethyl methanoate] + CCC(C)O
excess molar enthalpy [kcal/mol]
Settings	298.15 K	308.15 K
5000 kPa, x1 = 0.1504	0.234	–
5000 kPa, x1 = 0.1997	0.29	–
5000 kPa, x1 = 0.2497	0.336	–
5000 kPa, x1 = 0.3005	0.373	–
5000 kPa, x1 = 0.3501	0.4	–
5000 kPa, x1 = 0.4005	0.418	–
5000 kPa, x1 = 0.4497	0.429	–
5000 kPa, x1 = 0.4996	0.432	–
5000 kPa, x1 = 0.5502	0.427	–
5000 kPa, x1 = 0.5995	0.414	–
5000 kPa, x1 = 0.6496	0.394	–
5000 kPa, x1 = 0.7003	0.365	–
5000 kPa, x1 = 0.7496	0.328	–
5000 kPa, x1 = 0.7996	0.284	–
5000 kPa, x1 = 0.8996	0.156	–
5000 kPa, x1 = 0.9494	0.0812	–
10000 kPa, x1 = 0.0492	0.0843	–
10000 kPa, x1 = 0.0496	–	0.101
10000 kPa, x1 = 0.0992	0.17	–
10000 kPa, x1 = 0.1	–	0.197
10000 kPa, x1 = 0.15	0.243	–
10000 kPa, x1 = 0.1513	–	0.276
10000 kPa, x1 = 0.1985	0.3	–
10000 kPa, x1 = 0.2007	–	0.337
10000 kPa, x1 = 0.2509	0.348	0.386
10000 kPa, x1 = 0.2992	–	0.422
10000 kPa, x1 = 0.301	0.383	–
10000 kPa, x1 = 0.3487	0.407	–
10000 kPa, x1 = 0.351	–	0.451
10000 kPa, x1 = 0.4004	0.425	–
10000 kPa, x1 = 0.4008	–	0.47
10000 kPa, x1 = 0.4495	0.436	–
10000 kPa, x1 = 0.4514	–	0.479
10000 kPa, x1 = 0.4994	0.439	–
10000 kPa, x1 = 0.4999	–	0.481
10000 kPa, x1 = 0.5491	–	0.475
10000 kPa, x1 = 0.5501	0.433	–
10000 kPa, x1 = 0.599	–	0.46
10000 kPa, x1 = 0.6015	0.42	–
10000 kPa, x1 = 0.6497	–	0.436
10000 kPa, x1 = 0.6502	0.402	–
10000 kPa, x1 = 0.6996	0.373	–
10000 kPa, x1 = 0.7011	–	0.405
10000 kPa, x1 = 0.7497	0.331	–
10000 kPa, x1 = 0.7502	–	0.363
10000 kPa, x1 = 0.8	–	0.314
10000 kPa, x1 = 0.8006	0.284	–
10000 kPa, x1 = 0.8485	0.223	–
10000 kPa, x1 = 0.8506	–	0.255
10000 kPa, x1 = 0.8986	–	0.185
10000 kPa, x1 = 0.9008	0.154	–
10000 kPa, x1 = 0.95	0.0895	–
10000 kPa, x1 = 0.9506	–	0.0966

CCOC=O [ethyl methanoate] + CCCCCO
298.15 K
Settings	excess molar enthalpy [kcal/mol]
5000 kPa, x1 = 0.0502	0.0619
5000 kPa, x1 = 0.0995	0.145
5000 kPa, x1 = 0.1505	0.22
5000 kPa, x1 = 0.2006	0.279
5000 kPa, x1 = 0.2494	0.324
5000 kPa, x1 = 0.2998	0.361
5000 kPa, x1 = 0.3487	0.388
5000 kPa, x1 = 0.3992	0.404
5000 kPa, x1 = 0.4514	0.409
5000 kPa, x1 = 0.4984	0.41
5000 kPa, x1 = 0.5503	0.406
5000 kPa, x1 = 0.6002	0.392
5000 kPa, x1 = 0.6516	0.372
5000 kPa, x1 = 0.7007	0.346
5000 kPa, x1 = 0.7513	0.312
5000 kPa, x1 = 0.7992	0.269
5000 kPa, x1 = 0.8484	0.215
5000 kPa, x1 = 0.899	0.151
5000 kPa, x1 = 0.951	0.0755
10000 kPa, x1 = 0.05	0.0947
10000 kPa, x1 = 0.0992	0.177
10000 kPa, x1 = 0.1501	0.247
10000 kPa, x1 = 0.2	0.303
10000 kPa, x1 = 0.2487	0.345
10000 kPa, x1 = 0.2991	0.376
10000 kPa, x1 = 0.3511	0.403
10000 kPa, x1 = 0.3984	0.418
10000 kPa, x1 = 0.4505	0.426
10000 kPa, x1 = 0.501	0.426
10000 kPa, x1 = 0.5495	0.419
10000 kPa, x1 = 0.5994	0.406
10000 kPa, x1 = 0.6508	0.382
10000 kPa, x1 = 0.7	0.353
10000 kPa, x1 = 0.7506	0.311
10000 kPa, x1 = 0.7987	0.268
10000 kPa, x1 = 0.848	0.217
10000 kPa, x1 = 0.8987	0.154
10000 kPa, x1 = 0.9509	0.0804
